The values below come from patent US11186583B2, “5-alkylthio-7-[(4-arylbenzyl)amino]-1(2)H-pyrazolo[4,3-d]pyrimidines for treatment of lymphoma” (UNIVERZITA PALACKEHO V OLOMOUCI, priority 2018, dated 2021).

Each structure is given as a SMILES string. Read-outs that look alike come from different tables or passages of the source.

One test has as its target T1, CDK2/Cyclin E (Homo sapiens, UniProt P24941).
T1 construct: made in house; host or cells: Sf9 insect cells (baculovirus)
The experiment in a line: CDK2/Cyclin E kinase inhibition, [γ-33P]ATP, histone H1. The class given is biochemical. As for the experimental part:
CDK2/Cyclin E and CDK1/Cyclin B kinases were produced in Sf9 insect cells via baculoviral infection and purified on a Ni-NTA column (Qiagen). CDK4/Cyclin D1, CDK5/p35NCK, CDK7/Cyclin H/MAT1 and CDK9/Cyclin T1 were purchased from ProQinase GmbH. […] The reactions were stopped by adding 5 mL of 3% aq. H3PO4. Aliquots were spotted onto P-81 phosphocellulose (Whatman), washed 3 times with 0.5% aq. H3PO4 and finally air-dried. Kinase inhibition was quantified using a FLA-7000 digital image analyzer (Fujifilm). The concentration of the test compounds required to decrease the CDK activity by 50% was determined from dose response curves and designated as IC50.

Test [1] has as its system MINO (mantle cell lymphoma). Kind of test: MTT cytotoxicity assay, MINO lymphoma cell line. The class given is cell-based. Particulars: Homo sapiens, 72 h, MINO cells, three days, read-out: Lymphoma cell lines GI50, MINO. An excerpt:
(§1) Cytotoxicity of the compounds is the major property determining their anti-lymphoma efficacy in vitro. One of the parameters used, as the basis for cytotoxicity assays, is the metabolic activity of viable cells. For example 2, a microtiter assay, which uses (3-(4,5-dimethylthiazol-2-yl)-2,5-diphenyltetrazolium bromide (MTT), is widely used to quantitate cell proliferation and cytotoxicity. This assay is widely used in drug screening programs and in chemosensitivity testing. Because only metabolically active living cells reduce MTT to correspond purple formazan dye, these assays detect viable cells exclusively. The quantity of reduced MTT corresponds to the number of vital cells in the culture.
(§2) The compounds were assayed using the following lymphoma cell lines: HT (diffuse large B-cell lymphoma, subtype—germinal center B-cell), OCI-LY2 (diffuse large B-cell lymphoma, subtype—germinal center B-cell), MINO (mantle cell lymphoma). All cell lines were grown in RPMI medium supplemented with fetal bovine serum and glutamine and maintained at 37° C. in a humidified atmosphere with 5% CO2. For cytotoxicity assays, 5000-10000 cells were seeded into each well of 96 well plate, allowed to stabilize for at least 8 h and then tested compounds were added at various concentrations ranging from 100 to 0.01 μM in triplicates. After three days, MTT solution (5 mg/ml; Sigma, St. Louis, USA) was added to cells and medium was replaced with DMSO after five hours. The absorbance was measured at 620 nm by employing a microplate reader. MTT assays were repeated 3 times for each drug application and untreated cells were used as reference. The GI50 values, drug concentrations lethal to 50% of the cells, were calculated from the obtained dose response curves.
In general terms: Tetrazolium dyes change colour on reduction, which living cells bring about.

The test system of test [2] is HT (diffuse large B-cell lymphoma, subtype—germinal center B-cell). Kind of test: MTT cytotoxicity assay, HT lymphoma cell line. The class given is cell-based. As to conditions: Homo sapiens, 72 h, HT cells, three days, read-out: Lymphoma cell lines GI50, HT.
Excerpt: as §1, §2

Test [3] has as its system OCI-LY2 (diffuse large B-cell lymphoma, subtype—germinal center B-cell). Kind of test: MTT cytotoxicity assay, OCI-LY2 lymphoma cell line. Format: cell-based. As to conditions: 72 h, OCI-LY2 cells, three days, read-out: Lymphoma cell lines GI50, OCI-LY2.
Excerpt: as §1, §2

The mark [4] stands for this setting: Table 4, read-out: CDK2/E inhibition IC50.
[5] abbreviates: Table 3, read-out: Enzyme inhibition IC50 CDK2/E.

Turning to `CC(C)c1n[nH]c2c(NCc3ccc(-c4c[nH]cn4)cc3)nc(SCCO)nc12` [Compound 4.109, 5-(2-Hydroxy-1-ethyl)thio-3-isopropyl-7-[4-(imidazol-4-yl)benzyl]amino-1(2)H-pyrazolo[4,3-d]pyrimidin], the IC50 at CDK2/Cyclin E (setting [4]) was 5 nM.

As for `CC(C)c1n[nH]c2c(NCc3ccc(-c4cnccn4)cc3)nc(SCCO)nc12` [Compound 4.133, 5-(2-Hydroxy-1-ethyl)thio-3-isopropyl-7-[4-(pyrazin-2-yl)benzyl]amino-1(2)H-pyrazolo[4,3-d]pyrimidin], the IC50 at CDK2/Cyclin E (setting [4]) is 6 nM.

Regarding `CC(C)c1n[nH]c2c(NCc3ccc(-c4ccccn4)cc3)nc(SCCS)nc12` [Compound 4.35, 5-(2-sulfanylethyl)thio-3-isopropyl-7-[4-(2-pyridyl)benzyl]amino-1(2)H-pyrazolo[4,3-d]pyrimidine], the IC50 on CDK2/Cyclin E (setting [5]) stood at 320 nM.

As for `CC(C)c1[nH]nc2c(NCc3ccc(-n4cccn4)cc3)nc(SCCN(C)C)nc12` [Compound 4.95], on CDK2/Cyclin E (setting [4]), the IC50 worked out at 43 nM.

A word on the GI50: it is the concentration that inhibits growth by half. With `CC(C)c1n[nH]c2c(NCc3ccc(-c4ccccn4)cc3)nc(SCCN)nc12` [Compound 4.9, 5-(2-Amino-1-ethyl)thio-3-isopropyl-7-[4-(2-pyridyl)benzyl]amino-1(2)H-pyrazolo[4,3-d]pyrimidine], the GI50 in test [1] was 29 nM; in test [2], 40 nM; in test [3] it was 46 nM. Further, the IC50 stood at 5 ± 1 nM at CDK2/Cyclin E (CDK panel, tested at least in duplicates, read-out: IC50 CDK2) and 4 nM on CDK2/Cyclin E (setting [5]).

Consider `CC(C)c1n[nH]c2c(NCc3ccc(-c4cnccn4)cc3)nc(SCCN)nc12` [Compound 4.139, 5-(2-Amino-1-ethyl)thio-3-isopropyl-7-[4-(pyrazin-2-yl)benzyl]amino-1(2)H-pyrazolo[4,3-d]pyrimidin], for which the IC50 on CDK2/Cyclin E (setting [4]) is 4 nM.

Consider `CC(C)c1n[nH]c2c(NCc3ccc(-n4ccnc4)cc3)nc(SCCN)nc12` [Compound 4.57, 5-(2-Amino-1-ethyl)thio-3-isopropyl-7-[4-(imidazol-1-yl)benzyl]amino-1(2)H-pyrazolo[4,3-d]pyrimidin], for which the IC50 at CDK2/Cyclin E (setting [4]) stood at 5 nM.

In the case of `CC(C)c1[nH]nc2c(NCc3ccc(-n4cccn4)cc3)nc(SCCO)nc12` [Compound 4.80, 5-(2-Hydroxy-1-ethyl)thio-3-isopropyl-7-[4-(pyrazol-1-yl)benzyl]amino-1(2)H-pyrazolo[4,3-d]pyrimidin], the IC50 on CDK2/Cyclin E (setting [4]) was found to be 3 nM.

In the case of `CC(C)c1n[nH]c2c(NCc3ccc(-c4ccccn4)cc3)nc(SCCC(N)=O)nc12` [Compound 4.6, 5-(2-Carbamoyl-1-ethyl)thio-3-isopropyl-7-[4-(2-pyridyl)benzyl]amino-1(2)H-pyrazolo[4,3-d]pyrimidine], the GI50 in test [1] came to 81 nM; in test [2], 120 nM; in test [3], 84 nM.

On to `CC(C)c1n[nH]c2c(NCc3ccc(-c4ccccn4)cc3)nc(SCCCO)nc12` [Compound 4.8, 5-(3-Hydroxy-1-propyl)thio-3-isopropyl-7-[4-(2-pyridyl)benzyl]amino-1(2)H-pyrazolo[4,3-d]pyrimidine], for which the GI50 in test [1] was 89 nM; in test [2], 109 nM; in test [3], 102 nM.

Consider `CC(C)c1n[nH]c2c(NCc3ccc(-c4ccccn4)cc3)nc(SCC(O)CN3CCNCC3)nc12` (stereo not drawn) [Compound 4.25, 5-[3-(1-Piperazinyl)-2-hydroxy-1-propyl]thio-3-isopropyl-7-[4-(2-pyridyl)benzyl]amino-1(2)H-pyrazolo[4,3-d]pyrimidine], for which the figures for the GI50 in test [1], in test [2] and in test [3] were 767 nM, 332 nM and 435 nM, respectively.

Take `CC(C)c1n[nH]c2c(NCc3ccc(-c4ccccn4)cc3)nc(SCC3CNC(=O)O3)nc12` (stereo not drawn) [Compound 4.28, 5-[(Oxazolidin-2-on-5-yl)methyl]thio-3-isopropyl-7-[4-(2-pyridyl)benzyl]amino-1(2)H-pyrazolo[4,3-d]pyrimidine]: the GI50 was determined as 69 nM in test [1], 80 nM in test [2] and 53 nM in test [3].

Take `CC(C)c1[nH]nc2c(NCc3ccc(-n4cccn4)cc3)nc(SCC(C)(C)N)nc12` [Compound 4.90, 5-(2-Amino-2-methyl-1-propyl)thio-3-isopropyl-7-[4-(pyrazol-1-yl)benzyl]amino-1(2)H-pyrazolo[4,3-d]pyrimidin]: on CDK2/Cyclin E (setting [4]), the IC50 was found to be 11 nM.

For the compound `CC(C)c1n[nH]c2c(NCc3ccc(-c4ccccn4)cc3)nc(SCC(N)CN)nc12` (stereo not drawn) [Compound 4.29, 5-(2,3-Diamino-1-propyl)thio-3-isopropyl-7-[4-(2-pyridyl)benzyl]amino-1(2)H-pyrazolo[4,3-d]pyrimidine], the GI50 stood at 770 nM in test [1], 480 nM in test [2] and 780 nM in test [3].

Regarding `CC(C)c1[nH]nc2c(NCc3ccc(-n4cccn4)cc3)nc(SCC(C)(C)O)nc12` [Compound 4.93, 5-(2-Hydroxy-2-methyl-1-propyl)thio-3-isopropyl-7-[4-(pyrazol-1-yl)benzyl]amino-1(2)H-pyrazolo[4,3-d]pyrimidin], on CDK2/Cyclin E (setting [4]), the IC50 came to 8 nM.

In the case of `CC(C)c1[nH]nc2c(NCc3ccc(-n4cccn4)cc3)nc(SCCCN(C)C)nc12` [Compound 4.96], the IC50 at CDK2/Cyclin E (setting [4]) is 60 nM.

`CC(O)CSc1nc(NCc2ccc(-n3cccn3)cc2)c2n[nH]c(C(C)C)c2n1` (stereo not drawn) [Compound 4.81, 5-(2-Hydroxy-1-propyl)thio-3-isopropyl-7-[4-(pyrazol-1-yl)benzyl]amino-1(2)H-pyrazolo[4,3-d]pyrimidin]: on CDK2/Cyclin E (setting [4]), the IC50 was determined as 37 nM.

With `CC(C)c1n[nH]c2c(NCc3ccc(-n4ccnc4)cc3)nc(SCCO)nc12` [Compound 4.50, 5-(2-Hydroxy-1-ethyl)thio-3-isopropyl-7-[4-(imidazol-1-yl)benzyl]amino-1(2)H-pyrazolo[4,3-d]pyrimidine], the IC50 on CDK2/Cyclin E (setting [4]) stood at 10 nM.

As for `CC(C)c1n[nH]c2c(NCc3ccc(-c4ccccn4)cc3)nc(SCCNC(N)=O)nc12` [Compound 4.11, 5-(2-Ureido-1-ethyl)thio-3-isopropyl-7-[4-(2-pyridyl)benzyl]amino-1(2)H-pyrazolo[4,3-d]pyrimidine], the figures for the GI50 in test [1], in test [2] and in test [3] were 136 nM, 240 nM and 198 nM, respectively.

With `CC(C)c1n[nH]c2c(NCc3ccc(-c4ccccn4)cc3)nc(SCC(N)=O)nc12` [Compound 4.7, 5-(Carbamoylmethyl)thio-3-isopropyl-7-[4-(2-pyridyl)benzyl]amino-1(2)H-pyrazolo[4,3-d]pyrimidine], the GI50 in test [1] amounted to 197 nM; in test [2], 192 nM; in test [3], 163 nM.

`CCC(CO)Sc1nc(NCc2ccc(-c3ccccn3)cc2)c2[nH]nc(C(C)C)c2n1` (stereo not drawn) [Compound 4.5, 5-(1-Hydroxy-2-butyl)thio-3-isopropyl-7-[4-(2-pyridyl)benzyl]amino-1(2)H-pyrazolo[4,3-d]pyrimidin]: the GI50 in test [1] was 119 nM; in test [2], 255 nM; in test [3] it was 181 nM.

Turning to `CC(C)c1n[nH]c2c(NCc3ccc(-c4ccccn4)cc3)nc(SCC(O)CO)nc12` (stereo not drawn) [Compound 4.18, 5-(2,3-Dihydroxy-1-propyl)thio-3-isopropyl-7-[4-(2-pyridyl)benzyl]amino-1(2)H-pyrazolo[4,3-d]pyrimidine], the GI50 was 10 nM in test [1], 21 nM in test [2] and 22 nM in test [3].

In the case of `CC(C)c1n[nH]c2c(NCc3ccc(-c4ccccn4)cc3)nc(SC3CCCC3O)nc12` (stereo not drawn) [Compound 4.16, 5-(2-Hydroxycyclopentyl)thio-3-isopropyl-7-[4-(2-pyridyl)benzyl]amino-1(2)H-pyrazolo[4,3-d]pyrimidine], the GI50 in test [1] was 450 nM; in test [2], 567 nM; in test [3], 373 nM.

Take `CSCCSc1nc(NCc2ccc(-c3ccccn3)cc2)c2[nH]nc(C(C)C)c2n1` [Compound 4.30, 5-(2-Methylthio-1-ethyl)thio-3-isopropyl-7-[4-(2-pyridyl)benzyl]amino-1(2)H-pyrazolo[4,3-d]pyrimidine]: the GI50 in test [1] was found to be 773 nM; in test [2], 975 nM; in test [3] it was 668 nM.

As to `CC(C)c1[nH]nc2c(NCc3ccc(-n4cccn4)cc3)nc(SCC(O)CO)nc12` (stereo not drawn) [Compound 4.94, 5-(2,3-Dihydroxy-1-propyl)thio-3-isopropyl-7-[4-(pyrazol-1-yl)benzyl]amino-1(2)H-pyrazolo[4,3-d]pyrimidin], the IC50 at CDK2/Cyclin E (setting [4]) was found to be 6 nM.
